This passage reports IC50 results from ChEMBL document CHEMBL4229546, “Structure-based design and synthesis of 1H-pyrazolo[3,4-d]pyrimidin-4-amino derivatives as Janus kinase 3 inhibitors” (Bioorg Med Chem, 2018).

The term IC50 denotes the concentration that inhibits the measured activity by half.

Experiment [1] has as its target Tyrosine-protein kinase JAK1 (Homo sapiens, UniProt P23458).
The target in experiment [2] is Non-receptor tyrosine-protein kinase TYK2 (Homo sapiens, UniProt P29597).
Sequence of Non-receptor tyrosine-protein kinase TYK2 (P29597 whole entry): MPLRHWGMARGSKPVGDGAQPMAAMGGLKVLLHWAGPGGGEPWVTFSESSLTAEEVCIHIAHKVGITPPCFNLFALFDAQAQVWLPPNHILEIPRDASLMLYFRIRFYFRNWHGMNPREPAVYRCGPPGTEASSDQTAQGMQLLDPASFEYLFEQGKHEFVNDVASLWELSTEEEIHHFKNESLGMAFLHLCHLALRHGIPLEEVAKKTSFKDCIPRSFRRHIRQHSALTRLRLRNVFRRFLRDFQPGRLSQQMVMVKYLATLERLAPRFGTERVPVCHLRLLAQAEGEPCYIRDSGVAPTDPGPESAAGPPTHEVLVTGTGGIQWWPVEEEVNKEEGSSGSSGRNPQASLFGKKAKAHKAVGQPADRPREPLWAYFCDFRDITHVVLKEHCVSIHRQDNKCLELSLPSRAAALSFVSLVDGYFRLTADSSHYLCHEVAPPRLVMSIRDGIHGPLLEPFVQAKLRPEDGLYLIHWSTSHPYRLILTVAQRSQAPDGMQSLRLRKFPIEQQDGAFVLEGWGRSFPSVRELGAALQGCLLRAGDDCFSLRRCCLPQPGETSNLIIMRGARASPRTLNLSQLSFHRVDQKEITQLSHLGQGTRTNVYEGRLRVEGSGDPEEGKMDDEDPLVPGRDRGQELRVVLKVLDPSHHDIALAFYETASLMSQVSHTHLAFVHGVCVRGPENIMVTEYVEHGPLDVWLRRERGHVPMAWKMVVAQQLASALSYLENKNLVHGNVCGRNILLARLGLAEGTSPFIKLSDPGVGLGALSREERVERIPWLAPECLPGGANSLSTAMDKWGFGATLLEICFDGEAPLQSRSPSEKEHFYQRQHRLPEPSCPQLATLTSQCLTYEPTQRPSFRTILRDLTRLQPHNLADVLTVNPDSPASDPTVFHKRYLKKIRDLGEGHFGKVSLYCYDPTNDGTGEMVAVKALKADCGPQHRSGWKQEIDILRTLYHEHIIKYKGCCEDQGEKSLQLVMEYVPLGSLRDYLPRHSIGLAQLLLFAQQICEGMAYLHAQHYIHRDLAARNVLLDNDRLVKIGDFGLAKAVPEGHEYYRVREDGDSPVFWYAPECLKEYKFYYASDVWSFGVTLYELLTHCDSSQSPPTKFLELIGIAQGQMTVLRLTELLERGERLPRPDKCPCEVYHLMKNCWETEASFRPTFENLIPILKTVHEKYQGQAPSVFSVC
For experiment [3], the target named is Tyrosine-protein kinase BTK (Homo sapiens, UniProt Q06187).
Sequence of Tyrosine-protein kinase BTK (Q06187 whole entry): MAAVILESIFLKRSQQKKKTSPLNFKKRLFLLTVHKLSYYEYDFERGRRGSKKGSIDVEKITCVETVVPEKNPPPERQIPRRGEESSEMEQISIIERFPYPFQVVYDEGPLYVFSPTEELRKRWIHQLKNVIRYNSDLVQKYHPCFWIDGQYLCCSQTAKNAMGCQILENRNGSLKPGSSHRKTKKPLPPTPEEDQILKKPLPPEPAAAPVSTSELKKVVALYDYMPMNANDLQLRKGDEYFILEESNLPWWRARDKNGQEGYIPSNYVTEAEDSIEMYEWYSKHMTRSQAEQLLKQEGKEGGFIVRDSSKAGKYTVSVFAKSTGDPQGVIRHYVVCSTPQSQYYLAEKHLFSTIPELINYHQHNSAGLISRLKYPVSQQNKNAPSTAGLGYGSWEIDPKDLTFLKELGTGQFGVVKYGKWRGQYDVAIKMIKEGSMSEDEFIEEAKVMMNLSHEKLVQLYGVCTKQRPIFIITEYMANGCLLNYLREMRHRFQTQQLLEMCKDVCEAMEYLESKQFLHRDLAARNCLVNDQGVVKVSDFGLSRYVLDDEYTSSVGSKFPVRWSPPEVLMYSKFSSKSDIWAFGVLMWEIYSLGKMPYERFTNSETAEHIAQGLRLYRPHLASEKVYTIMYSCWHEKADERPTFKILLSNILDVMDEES

The structures appear in SMILES notation.

Sequence of Tyrosine-protein kinase JAK1 (P23458 whole entry): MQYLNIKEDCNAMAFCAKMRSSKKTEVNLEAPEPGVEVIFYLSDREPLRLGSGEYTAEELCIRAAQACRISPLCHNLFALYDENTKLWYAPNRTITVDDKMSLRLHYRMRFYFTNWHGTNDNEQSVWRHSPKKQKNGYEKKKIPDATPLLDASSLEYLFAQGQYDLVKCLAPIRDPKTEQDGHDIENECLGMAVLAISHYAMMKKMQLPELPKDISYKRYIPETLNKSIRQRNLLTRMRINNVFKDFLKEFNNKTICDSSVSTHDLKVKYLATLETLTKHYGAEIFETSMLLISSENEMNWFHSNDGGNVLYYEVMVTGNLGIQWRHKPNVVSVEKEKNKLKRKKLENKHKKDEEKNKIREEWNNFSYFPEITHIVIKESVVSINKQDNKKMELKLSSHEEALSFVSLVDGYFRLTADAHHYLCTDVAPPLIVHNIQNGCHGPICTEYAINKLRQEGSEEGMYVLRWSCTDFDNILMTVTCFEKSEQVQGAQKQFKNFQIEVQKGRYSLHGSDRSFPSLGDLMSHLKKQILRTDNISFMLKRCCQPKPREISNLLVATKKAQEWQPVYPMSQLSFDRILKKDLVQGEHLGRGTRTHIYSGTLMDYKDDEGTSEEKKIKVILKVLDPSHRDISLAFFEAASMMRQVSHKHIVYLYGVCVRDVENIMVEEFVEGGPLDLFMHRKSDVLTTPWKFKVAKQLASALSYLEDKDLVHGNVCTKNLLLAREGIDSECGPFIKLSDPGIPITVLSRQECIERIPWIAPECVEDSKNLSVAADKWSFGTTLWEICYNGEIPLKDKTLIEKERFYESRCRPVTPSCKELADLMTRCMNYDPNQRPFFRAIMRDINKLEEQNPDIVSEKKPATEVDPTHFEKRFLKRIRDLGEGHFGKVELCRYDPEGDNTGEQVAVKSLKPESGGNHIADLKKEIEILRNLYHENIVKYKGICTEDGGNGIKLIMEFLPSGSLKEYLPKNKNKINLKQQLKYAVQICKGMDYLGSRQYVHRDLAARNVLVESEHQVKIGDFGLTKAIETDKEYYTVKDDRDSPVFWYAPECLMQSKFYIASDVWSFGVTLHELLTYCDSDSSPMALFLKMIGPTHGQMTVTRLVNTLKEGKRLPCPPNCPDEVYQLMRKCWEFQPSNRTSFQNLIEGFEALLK

`CN(C)CC(=O)N1CCCC(Cn2nc(-c3cnn(C)c3)c3c(N)ncnc32)C1` (stereo not given) had an IC50 in experiment [1] of 2290 nM.

As for `COCCn1cc(-c2nn(C3CCCN(C(=O)CC#N)C3)c3ncnc(N)c23)cn1` (stereo not given), the IC50 in experiment [1] came out at 497 nM; in experiment [2], 3220 nM.

For `Cn1cc(-c2nn(CC3CCCN(C(=O)CC#N)C3)c3ncnc(N)c23)cn1` (stereo not given), the IC50 in experiment [1] turned out to be 147 nM; in experiment [2] it was 2350 nM.

For the molecule `Cn1cc(-c2nn(C3CCN(C#N)CC3)c3ncnc(N)c23)cn1`, in experiment [1], the IC50 stood at 165 nM.

In turn, `CN(C)CC(=O)N1CCCC(n2nc(-c3cnn(C)c3)c3c(N)ncnc32)C1` (stereo not given) yielded an IC50 in experiment [1] of 1370 nM.

As for `C=CC(=O)N1CCCC(Cn2nc(-c3cnn(C)c3)c3c(N)ncnc32)C1` (stereo not given), the IC50 came out at 481 nM in experiment [3], 1950 nM in experiment [1] and 3960 nM in experiment [2].

`C=CC(=O)N1CCCC(n2nc(-c3cnn(C)c3)c3c(N)ncnc32)C1` (stereo not given): the results for the half-inhibitory concentration (IC50) in experiment [3], in experiment [1] and in experiment [2] were 180 nM, 618 nM and 1180 nM, respectively.

As for `COCCn1cc(-c2nn(CC3CCCN(C(=O)CC#N)C3)c3ncnc(N)c23)cn1` (stereo not given), the results for the 50% inhibitory concentration (IC50) in experiment [1] and in experiment [2] were 497 nM and > 3000 nM, respectively.

Regarding `C=CC(=O)N1CCC(n2nc(-c3cnn(CCOC)c3)c3c(N)ncnc32)C1` (stereo not given), the IC50 in experiment [3] was found to be 126 nM; in experiment [1] it was 1070 nM; in experiment [2], 1720 nM.

For the molecule `Cn1cc(-c2nn(C3CCCN(C(=O)CC#N)C3)c3ncnc(N)c23)cn1` (stereo not given), the results for the half-maximal inhibitory concentration (IC50) in experiment [1] and in experiment [2] were 342 nM and 2430 nM, respectively.

Molecule `COCCn1cc(-c2nn(C3CCN(C#N)CC3)c3ncnc(N)c23)cn1` showed an IC50 in experiment [1] of 112 nM.

Consider `C=CC(=O)N1CCC(n2nc(-c3cnn(C)c3)c3c(N)ncnc32)C1` (stereo not given), for which the half-maximal inhibitory concentration (IC50) in experiment [3] came to 203 nM; in experiment [1] it was 694 nM; in experiment [2], 1420 nM.

In the case of `C=CC(=O)N1CCCC(n2nc(-c3cnn(CCOC)c3)c3c(N)ncnc32)C1` (stereo not given), the IC50 in experiment [3] was 159 nM; in experiment [1] it was 1350 nM; in experiment [2], 2120 nM.

In the case of `C=CC(=O)N1CCCC(Cn2nc(-c3cnn(CCOC)c3)c3c(N)ncnc32)C1` (stereo not given), the results for the IC50 in experiment [3], in experiment [1] and in experiment [2] were 420 nM, 1670 nM and 3300 nM, respectively.
